Laboratory results: US20240210394A1, “MICROORGANISM CAPTURE FROM ANTIMICROBIAL-CONTAINING SOLUTION” (MOMENTUM BIOSCIENCE LIMITED, priority 2019, published 2024)

Legend:
E. coli [1] = settings: cited from earlier work
Klebsiella pneumoniae [2] = settings: K. pneumoniae; cited from earlier work
Pseudomonas aeruginosa [3] = settings: P. aeruginosa; cited from earlier work
E. coli [4] = experiment: Blood culture time to positivity (flip time), bead rescue vs no-rescue control; assay type: cell-based; settings: Meropenem 49 mg/L blood; for Flip time: Bead rescue; for Flip time in Days: Control (FA plus bottle)
Method: (§1) Day 1: Prepare overnight culture of test organism in blood/broth medium (50:50 blood:broth) and incubate at 37° C. in a shaking incubator.
Day 2: Prepare ten-fold serial dilution of overnight culture in blood/broth as required and incubate at 37° C. for 2 h for outgrowth.
Add 5 mL of spiked blood+beads (set 1) and 5 mL of spiked blood/Abx+beads (set 3) to blood culture bottles (BioMerieux SA culture bottle) using a vial adapter (West Pharmaceutical Services, Inc. PA, US).
Remove the adaptor and incubate the blood culture bottles in the automated blood culture cabinet (BacT/ALERT BioMerieux) for up to 5 days.
(§2) Record the “Flip” time of each bottle or bottle result at the end of 5 days incubation. The “Flip” time is when a bottle turns positive as determined by the automated blood culture cabinet, which records time to positivity.
(§3) Day 1: Prepare overnight culture of test organism in blood/broth medium (50:50 blood:broth) and incubate at 37° C. (or 30° C. for C. neoformans) in a shaking incubator.
(or 30° C. for C. neoformans) for 2 h for outgrowth. • Antibiotic added to whole blood (defibrinated horse blood) at required level • Whole blood as no-antibiotic control • Test dilution(s) of organism added to blood+antibiotic or blood only at 10 μL per mL of blood (sufficient prepared for experiment requirements) • 100 μL plate count sample taken (TO sample) • 2-hour incubation (static) at 37° C. (or 30° C. for C. neoformans) • 100 μL plate count sample taken (T2 sample) • 5 mL of spiked blood+abx or blood only added to blood culture bottle (using vial adapter) and incubation started (adapter removed) • 5 mL of spiked blood+abx or blood only (from same source) treated with Momentum Capture Beads as below: • 1. Capture Beads diluted in the relevant Capture Reagent—50 μL beads:700 μL capture reagent per clean-up • 2. 750 μL of diluted beads added to 50 mL conical centrifuge tube • 3. 5 mL of transfer medium added to tube • 4. 5 mL of spiked blood+abx or blood only added to tube • 5. […] Magnetise on V&P magnet for 10 min then remove supernatant • 7. Resuspend beads in 1 mL Detergent-free Wash Buffer (DWB) off magnet and transfer to 2 mL Eppendorf flip-top tube on DynaMag-2 magnet • 8. Magnetise for 3 min then remove supernatant • 9. Resuspend beads in 1 mL Detergent-free Wash Buffer (DWB) off magnet then replace on DynaMag-2 magnet • 10. Magnetise for 3 min then remove supernatant • 11. Resuspend beads in 1 mL DWB, add to new blood culture bottle (using vial adapter) and start incubation (adapter removed)
Momentum Capture Beads diluted in the relevant Capture Reagent—50 μL beads:700 μL capture reagent per clean-up • 2. 750 μL of diluted beads added to 50 mL conical centrifuge tube • 3. 5 mL of transfer medium added to tube • 4. 5 mL of spiked blood+abx or blood only added to tube • 5. […] Magnetise on V&P magnet for 10 min then remove supernatant • 7. Resuspend beads in 1 mL Detergent-free Wash Buffer (DWB) off magnet and transfer to 2 mL Eppendorf flip-top tube on DynaMag-2 magnet • 8. Magnetise for 3 min then remove supernatant • 9. Resuspend beads in 1 mL Detergent-free Wash Buffer (DWB) off magnet then replace on DynaMag-2 magnet • 10. Magnetise for 3 min then remove supernatant • 11. Resuspend beads in 1 mL DWB, add to an unused blood culture bottle (BioMerieux FA+culture bottle) using vial adapter and start incubation (adapter removed)

Klebsiella pneumoniae [5] = experiment: as above; assay type: cell-based; settings: Meropenem 49 mg/L blood; for Flip time: Bead rescue; for Flip time in Days: Control (FA plus bottle)
Method: as §3
(§4) (or 30° C. for C. neoformans) for 2 h for outgrowth. • Antibiotic added to whole blood (defibrinated horse blood) at required level • Whole blood as no-antibiotic control • Test dilution(s) of organism added to blood+antibiotic or blood only at 10 μL per mL of blood (sufficient prepared for experiment requirements) • 100 μL plate count sample taken (TO sample) • 2-hour incubation (static) at 37° C. (or 30° C. for C. neoformans) • 100 μL plate count sample taken (T2 sample) • 5 mL of spiked blood+abx or blood only added to blood culture bottle (using vial adapter) and incubation started (adapter removed) • 5 mL of spiked blood+abx or blood only (from same source) treated with Momentum Capture Beads as below: • 1. Capture Beads diluted in the relevant Capture Reagent—50 μL beads:700 μL capture reagent per clean-up • 2. 750 μL of diluted beads added to 50 mL conical centrifuge tube • 3. 5 mL of transfer medium added to tube • 4. 5 mL of spiked blood+abx or blood only added to tube • 5. Incubate on ITL TherMix (32.5° C./30 min/1000 rpm—ramped speed protocol) • 6. Magnetise on V&P magnet for 10 min then remove supernatant • 7. Resuspend beads in 1 mL Detergent-free Wash Buffer (DWB) off magnet and transfer to 2 mL Eppendorf flip-top tube on DynaMag-2 magnet • 8. Magnetise for 3 min then remove supernatant • 9. Resuspend beads in 1 mL Detergent-free Wash Buffer (DWB) off magnet then replace on DynaMag-2 magnet • 10. Magnetise for 3 min then remove supernatant • 11. Resuspend beads in 1 mL DWB, add to new blood culture bottle (using vial adapter) and start incubation (adapter removed)
as §2, §1
(§5) Momentum Capture Beads diluted in the relevant Capture Reagent—50 μL beads:700 μL capture reagent per clean-up • 2. 750 μL of diluted beads added to 50 mL conical centrifuge tube • 3. 5 mL of transfer medium added to tube • 4. 5 mL of spiked blood+abx or blood only added to tube • 5. Incubate on ITL TherMix (32.5° C./30 min/1000 rpm—ramped speed protocol) • 6. Magnetise on V&P magnet for 10 min then remove supernatant • 7. Resuspend beads in 1 mL Detergent-free Wash Buffer (DWB) off magnet and transfer to 2 mL Eppendorf flip-top tube on DynaMag-2 magnet • 8. Magnetise for 3 min then remove supernatant • 9. Resuspend beads in 1 mL Detergent-free Wash Buffer (DWB) off magnet then replace on DynaMag-2 magnet • 10. Magnetise for 3 min then remove supernatant • 11. Resuspend beads in 1 mL DWB, add to an unused blood culture bottle (BioMerieux FA+culture bottle) using vial adapter and start incubation (adapter removed)

Pseudomonas aeruginosa [6] = experiment: as above; assay type: cell-based; settings: Meropenem 49 mg/L blood
Method: as §3, §4, §2, §1, §5

C[C@@H](O)[C@H]1C(=O)N2C(C(=O)O)=C(S[C@@H]3CN[C@H](C(=O)N(C)C)C3)[C@H](C)[C@H]12 [Meropenem]
MIC (E. coli [1]): ≤1 µg/mL | MIC (Klebsiella pneumoniae [2]): ≤1 µg/mL | MIC (Pseudomonas aeruginosa [3]): ≤1 µg/mL | Flip time (E. coli [4]; 900 cfu/5 mL blood): 0.56 days | Flip time (E. coli [4]; 150000 cfu/5 mL blood): 0.46 days | Flip time (E. coli [4]; 1500000 cfu/5 mL blood): 0.43 days | Flip time in Days (E. coli [4]; 900 cfu/5 mL blood): Neg | Flip time in Days (E. coli [4]; 150000 cfu/5 mL blood): Neg | Flip time in Days (E. coli [4]; 1500000 cfu/5 mL blood): Neg | Flip time (Klebsiella pneumoniae [5]; 125000 cfu/5 mL blood): 0.43 days | Flip time (Klebsiella pneumoniae [5]; 1250000 cfu/5 mL blood): 0.38 days | Flip time in Days (Klebsiella pneumoniae [5]; 125000 cfu/5 mL blood): Neg | Flip time in Days (Klebsiella pneumoniae [5]; 1250000 cfu/5 mL blood): Neg | Flip time (Pseudomonas aeruginosa [6]; Bead rescue, 1250 cfu/5 mL blood): 0.81 days | Flip time (Pseudomonas aeruginosa [6]; Bead rescue, 200000 cfu/5 mL blood): 0.54 days | Flip time (Pseudomonas aeruginosa [6]; Bead rescue, 2000000 cfu/5 mL blood): 0.46 days | Flip time in Days (Pseudomonas aeruginosa [6]; Control (FA plus bottle), 1250 cfu/5 mL blood): Neg | Flip time (Pseudomonas aeruginosa [6]; Control (FA plus bottle), 200000 cfu/5 mL blood): 0.9 days | Flip time (Pseudomonas aeruginosa [6]; Control (FA plus bottle), 2000000 cfu/5 mL blood): 0.81 days
